According to US12690587B2, “Animal and insect repellent and method of its use” (Cranberry IP, LLC, priority 2023, dated 2026):

System: white tail deer
Experiment: 12-month field test of repellent at twenty-one monitored test sites (tracks and browsing damage)
Assay type: in vivo, Odocoileus virginianus
Conditions: within 60-day application periods; regular and consistent use
Description: The performance of repellent composition of the present invention was evaluated by the inventor of the present invention in a study that lasted for approximately one year using twenty-one monitored test sites to field test the effectiveness of the composition that included butyl lactate. These sites each had three monitored areas: formulation with butyl lactate (1), same formulation without butyl lactate (2), and control (3), each approximately 100-200 square feet in size. Due to the proximity of the sites, the range of climates, food sources and types of species were consistent, making it easy to assess the repellent's effectiveness, which was evaluated by means of visual inspections and rating for animal tracks around and in the areas, and browsing damage to the plant material.

Q: With `CCCCOC(=O)C(C)O` (stereo not shown) [Butyl lactate] as the compound, how does the “duration of decreased white tail deer damage, presence and entry into treated areas” value read?
A: Its value is “more than 30 days”.
